The record followed here is paper PMC4620497 (Scientific Reports, 2015).

In one experiment the target is T1, ACVR1 (Homo sapiens, UniProt Q04771).
T1 construct: purchased DiscoveRx KINOMEscan (Ambit Biosciences)
In words: KINOMEscan panel screen. The experiment is classed as binding. Conditions: read-out: Percent Control(%).

The target of a further experiment is T2, ANKK1 (Homo sapiens, UniProt Q8NFD2).
T2 construct: purchased DiscoveRx KINOMEscan (Ambit Biosciences)
In words: KINOMEscan panel screen. The note with it: read-out: Percent Control(%). The experiment is classed as binding.

For the next experiment, the target named is T3, DMPK (Homo sapiens, UniProt Q09013).
T3 construct: purchased DiscoveRx KINOMEscan (Ambit Biosciences)
T3 sequence (Q09013 1-629): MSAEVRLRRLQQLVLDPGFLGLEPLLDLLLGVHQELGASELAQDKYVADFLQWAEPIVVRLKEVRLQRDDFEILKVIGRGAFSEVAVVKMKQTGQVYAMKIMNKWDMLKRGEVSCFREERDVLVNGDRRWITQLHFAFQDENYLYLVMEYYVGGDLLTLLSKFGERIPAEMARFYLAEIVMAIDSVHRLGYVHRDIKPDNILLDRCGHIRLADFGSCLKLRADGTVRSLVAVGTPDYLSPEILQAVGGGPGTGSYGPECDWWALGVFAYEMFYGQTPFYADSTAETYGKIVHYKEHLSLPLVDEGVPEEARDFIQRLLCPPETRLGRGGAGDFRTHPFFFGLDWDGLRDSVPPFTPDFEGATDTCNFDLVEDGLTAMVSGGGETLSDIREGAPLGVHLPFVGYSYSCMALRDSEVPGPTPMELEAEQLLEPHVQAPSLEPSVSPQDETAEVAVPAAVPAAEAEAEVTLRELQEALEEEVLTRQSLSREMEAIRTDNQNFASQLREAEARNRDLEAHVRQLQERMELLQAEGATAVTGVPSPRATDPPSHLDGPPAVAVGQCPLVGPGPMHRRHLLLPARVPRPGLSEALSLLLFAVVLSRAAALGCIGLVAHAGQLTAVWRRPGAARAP
In words: KINOMEscan panel screen. The experiment is classed as binding. Conditions: read-out: Percent Control(%).

The target in a further experiment is T4, IKK-epsilon (Homo sapiens, UniProt Q14164).
T4 construct: purchased DiscoveRx KINOMEscan (Ambit Biosciences)
Nature of the experiment: KINOMEscan panel screen. The experiment is classed as binding. The note with it: read-out: Percent Control(%).

The target of a further experiment is T5, KIT (Homo sapiens, UniProt P10721).
T5 construct: DNA tag (qPCR read-out); purchased Ambit Biosciences (KINOMEscan service)
T5 sequence (P10721 26-976): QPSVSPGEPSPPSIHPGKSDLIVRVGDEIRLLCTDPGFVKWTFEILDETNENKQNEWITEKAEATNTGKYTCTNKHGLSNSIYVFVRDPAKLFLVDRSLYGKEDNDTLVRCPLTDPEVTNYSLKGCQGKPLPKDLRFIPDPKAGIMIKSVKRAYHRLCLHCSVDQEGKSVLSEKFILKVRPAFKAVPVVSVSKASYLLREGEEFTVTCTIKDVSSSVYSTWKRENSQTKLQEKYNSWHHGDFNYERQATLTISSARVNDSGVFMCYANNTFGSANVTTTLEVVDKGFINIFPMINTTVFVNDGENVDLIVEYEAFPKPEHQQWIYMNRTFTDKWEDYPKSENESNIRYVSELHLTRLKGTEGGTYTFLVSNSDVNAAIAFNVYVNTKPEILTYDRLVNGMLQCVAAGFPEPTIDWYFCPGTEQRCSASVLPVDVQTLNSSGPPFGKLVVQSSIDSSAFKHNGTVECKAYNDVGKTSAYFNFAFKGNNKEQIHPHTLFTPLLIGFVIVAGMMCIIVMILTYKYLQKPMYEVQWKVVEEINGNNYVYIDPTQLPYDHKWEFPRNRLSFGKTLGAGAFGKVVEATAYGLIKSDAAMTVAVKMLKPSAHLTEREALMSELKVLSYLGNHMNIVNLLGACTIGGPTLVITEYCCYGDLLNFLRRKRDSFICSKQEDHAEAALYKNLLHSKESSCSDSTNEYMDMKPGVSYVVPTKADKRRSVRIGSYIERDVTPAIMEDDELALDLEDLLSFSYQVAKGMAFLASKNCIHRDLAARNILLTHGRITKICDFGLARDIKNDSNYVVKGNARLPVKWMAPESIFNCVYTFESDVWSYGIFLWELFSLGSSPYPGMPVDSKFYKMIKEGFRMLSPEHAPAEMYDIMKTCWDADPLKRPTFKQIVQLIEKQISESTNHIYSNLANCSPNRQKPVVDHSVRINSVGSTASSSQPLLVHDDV
Nature of the experiment: KINOMEscan panel screen. The experiment is classed as binding. The note with it: read-out: Percent Control(%).

For the next experiment, the target named is T6, MAP3K2 (Homo sapiens, UniProt Q9Y2U5).
T6 construct: purchased DiscoveRx KINOMEscan (Ambit Biosciences)
In words: KINOMEscan panel screen. It is filed as binding. The note with it: read-out: Percent Control(%).

Another experiment concerns the target T7, MEK5 (Homo sapiens, UniProt Q13163).
T7 construct: purchased DiscoveRx KINOMEscan (Ambit Biosciences)
In words: KINOMEscan panel screen. It is filed as binding. The note with it: read-out: Percent Control(%).

The target of another experiment is T8, NIM1 (Homo sapiens, UniProt Q8IY84).
T8 construct: purchased DiscoveRx KINOMEscan (Ambit Biosciences)
T8 sequence (Q8IY84 whole entry): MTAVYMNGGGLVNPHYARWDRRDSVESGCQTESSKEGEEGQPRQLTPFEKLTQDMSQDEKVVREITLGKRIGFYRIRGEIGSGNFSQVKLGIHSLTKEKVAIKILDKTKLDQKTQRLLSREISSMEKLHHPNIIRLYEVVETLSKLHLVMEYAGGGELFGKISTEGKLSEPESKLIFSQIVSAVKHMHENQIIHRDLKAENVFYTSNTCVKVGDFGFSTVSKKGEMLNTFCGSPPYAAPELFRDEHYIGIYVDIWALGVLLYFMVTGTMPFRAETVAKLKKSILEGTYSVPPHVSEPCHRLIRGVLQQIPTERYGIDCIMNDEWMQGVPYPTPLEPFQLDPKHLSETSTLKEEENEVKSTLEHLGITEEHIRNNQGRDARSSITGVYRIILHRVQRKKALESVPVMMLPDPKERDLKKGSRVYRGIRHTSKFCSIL
In words: KINOMEscan panel screen. It is filed as binding. The note with it: read-out: Percent Control(%).

A further experiment addresses T9, PIK3CA(E542K) (Homo sapiens, UniProt P42336, E542K).
T9 construct: purchased DiscoveRx KINOMEscan (Ambit Biosciences)
Nature of the experiment: KINOMEscan panel screen. The experiment is classed as binding. Conditions: read-out: Percent Control(%).

A further experiment deals with T10, PIK3CA(M1043I) (Homo sapiens, UniProt P42336, M1043I).
T10 construct: purchased DiscoveRx KINOMEscan (Ambit Biosciences)
T10 sequence (P42336 whole entry M1043I): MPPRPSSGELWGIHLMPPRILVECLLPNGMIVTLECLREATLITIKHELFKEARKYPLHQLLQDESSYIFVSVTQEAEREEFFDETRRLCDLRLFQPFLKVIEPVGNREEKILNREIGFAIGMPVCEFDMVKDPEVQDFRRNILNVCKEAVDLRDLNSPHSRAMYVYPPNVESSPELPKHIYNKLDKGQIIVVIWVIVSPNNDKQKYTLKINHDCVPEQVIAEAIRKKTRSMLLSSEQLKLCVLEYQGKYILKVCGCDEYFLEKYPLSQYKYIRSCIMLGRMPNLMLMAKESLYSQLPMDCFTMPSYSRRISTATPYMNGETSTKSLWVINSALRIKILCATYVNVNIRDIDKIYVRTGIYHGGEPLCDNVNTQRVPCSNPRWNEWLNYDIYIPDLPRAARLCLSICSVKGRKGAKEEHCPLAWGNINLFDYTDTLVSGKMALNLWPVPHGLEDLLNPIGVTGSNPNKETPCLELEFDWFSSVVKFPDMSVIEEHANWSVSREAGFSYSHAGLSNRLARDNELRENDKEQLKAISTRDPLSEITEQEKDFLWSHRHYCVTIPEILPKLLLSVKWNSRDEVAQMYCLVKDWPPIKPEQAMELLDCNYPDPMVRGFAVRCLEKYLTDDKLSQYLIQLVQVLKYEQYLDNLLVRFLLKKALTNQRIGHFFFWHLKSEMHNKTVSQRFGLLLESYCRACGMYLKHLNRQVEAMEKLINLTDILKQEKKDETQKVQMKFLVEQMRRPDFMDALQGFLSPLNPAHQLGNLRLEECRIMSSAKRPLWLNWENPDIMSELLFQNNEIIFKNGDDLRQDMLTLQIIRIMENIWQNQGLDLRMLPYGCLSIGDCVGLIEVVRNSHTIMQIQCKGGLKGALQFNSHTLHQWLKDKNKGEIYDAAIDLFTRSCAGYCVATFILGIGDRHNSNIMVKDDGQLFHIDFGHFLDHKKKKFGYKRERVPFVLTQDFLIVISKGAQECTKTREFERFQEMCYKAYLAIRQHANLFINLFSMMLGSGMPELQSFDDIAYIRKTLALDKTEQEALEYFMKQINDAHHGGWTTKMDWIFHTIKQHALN
In words: KINOMEscan panel screen. The experiment is classed as binding. Conditions: read-out: Percent Control(%).

Another experiment concerns the target T11, PKNB(M.tuberculosis) (Mycobacterium tuberculosis, UniProt P9WI81).
T11 construct: purchased DiscoveRx KINOMEscan (Ambit Biosciences)
In words: KINOMEscan panel screen. It is filed as binding. The note with it: read-out: Percent Control(%).

For experiment [1], the target named is T12, RPS6KA4(Kin.Dom.1-N-terminal) (Homo sapiens, UniProt O75676).
T12 construct: RPS6KA4(Kin.Dom.1-N-terminal); purchased DiscoveRx KINOMEscan (Ambit Biosciences)
In words: KINOMEscan panel screen. The experiment is classed as binding. The note with it: read-out: Percent Control(%).

For a further experiment, the target named is T13, STK35 (Homo sapiens, UniProt Q8TDR2).
T13 construct: purchased DiscoveRx KINOMEscan (Ambit Biosciences)
Nature of the experiment: KINOMEscan panel screen. The note with it: read-out: Percent Control(%). The experiment is classed as binding.

Experiment [2] deals with T14, TYK2(JH2domain-pseudokinase) (Homo sapiens, UniProt P29597).
T14 construct: TYK2(JH2domain-pseudokinase); purchased DiscoveRx KINOMEscan (Ambit Biosciences)
T14 sequence (P29597 556-888 limits assumed): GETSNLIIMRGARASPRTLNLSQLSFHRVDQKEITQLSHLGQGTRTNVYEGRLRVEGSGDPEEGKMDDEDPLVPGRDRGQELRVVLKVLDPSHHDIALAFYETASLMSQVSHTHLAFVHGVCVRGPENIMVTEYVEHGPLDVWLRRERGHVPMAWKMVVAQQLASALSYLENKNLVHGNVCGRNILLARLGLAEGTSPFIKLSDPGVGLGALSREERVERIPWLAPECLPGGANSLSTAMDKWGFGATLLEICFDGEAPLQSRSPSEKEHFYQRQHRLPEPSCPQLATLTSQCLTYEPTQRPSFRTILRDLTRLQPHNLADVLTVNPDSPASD
Nature of the experiment: KINOMEscan panel screen. It is filed as binding. The note with it: read-out: Percent Control(%).

A further experiment concerns the target T15, ULK2 (Homo sapiens, UniProt Q8IYT8).
T15 construct: purchased DiscoveRx KINOMEscan (Ambit Biosciences)
Nature of the experiment: KINOMEscan panel screen. The experiment is classed as binding. The note with it: read-out: Percent Control(%).

The next experiment addresses T16, VRK2 (Homo sapiens, UniProt Q86Y07).
T16 construct: purchased DiscoveRx KINOMEscan (Ambit Biosciences)
Nature of the experiment: KINOMEscan panel screen. The note with it: read-out: Percent Control(%). The experiment is classed as binding.

The target of another experiment is T17, PAK4 (Homo sapiens, UniProt O96013).
T17 construct: DNA tag (qPCR read-out); purchased Ambit Biosciences (KINOMEscan service)
In words: KINOMEscan kinase binding assay (Kd).

The subject of experiment [3] is β-catenin target genes in primary AML cells. In words: Real-time qPCR of β-catenin target genes in primary AML cells. The experiment is classed as cell-based, human. The text has this:
To confirm the Wnt/β-catenin inhibition effect of SKLB-677, we examined the protein levels of total β-catenin and non-phospho-β-catenin (active β-catenin); the non-phospho β-catenin other than the phosphorylated β-catenin enters the cell nucleus and plays the gene regulation function. […] We further examined the expressions of β-catenin target genes MYC, CCND1, and NKD1 by real-time qPCR. […] Finally, the real-time qPCR assays were used again to inspect the influence of SKLB-677 on Wnt/β-catenin signaling in the primary AML cells.
Total RNA of cell samples and tumor samples was extracted using RNAsimple total RNA kit (TIANGEN) according to the manufacturer’s instructions. cDNA was generated using the iScript^TMcDNA Synthesis Kit (Bio-Rad), and the RT-PCR reactions were performed using SsoAdvanced SYBR Green Supermix (Bio-Rad). The reaction consisted of 40 cycles of denaturation at 95 °C for 5 s and annealing/extension for 30s at 60 °C. The primer sequences are listed in Supplementary Table S7.

The structures appear in SMILES notation.

T1 sequence (Q04771 21-509): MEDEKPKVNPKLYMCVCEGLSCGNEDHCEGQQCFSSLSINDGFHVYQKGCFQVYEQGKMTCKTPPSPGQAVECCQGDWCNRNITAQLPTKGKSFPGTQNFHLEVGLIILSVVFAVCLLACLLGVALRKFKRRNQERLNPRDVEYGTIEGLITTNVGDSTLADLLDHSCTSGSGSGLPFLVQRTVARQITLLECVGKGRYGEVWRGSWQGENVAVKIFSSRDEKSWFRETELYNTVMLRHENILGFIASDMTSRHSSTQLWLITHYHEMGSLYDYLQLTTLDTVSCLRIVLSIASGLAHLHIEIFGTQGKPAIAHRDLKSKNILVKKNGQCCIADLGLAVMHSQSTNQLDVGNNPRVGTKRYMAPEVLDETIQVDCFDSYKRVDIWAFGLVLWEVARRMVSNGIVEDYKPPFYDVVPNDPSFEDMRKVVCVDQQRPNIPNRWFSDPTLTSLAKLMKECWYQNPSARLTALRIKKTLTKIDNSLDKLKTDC
T16 sequence (Q86Y07 whole entry): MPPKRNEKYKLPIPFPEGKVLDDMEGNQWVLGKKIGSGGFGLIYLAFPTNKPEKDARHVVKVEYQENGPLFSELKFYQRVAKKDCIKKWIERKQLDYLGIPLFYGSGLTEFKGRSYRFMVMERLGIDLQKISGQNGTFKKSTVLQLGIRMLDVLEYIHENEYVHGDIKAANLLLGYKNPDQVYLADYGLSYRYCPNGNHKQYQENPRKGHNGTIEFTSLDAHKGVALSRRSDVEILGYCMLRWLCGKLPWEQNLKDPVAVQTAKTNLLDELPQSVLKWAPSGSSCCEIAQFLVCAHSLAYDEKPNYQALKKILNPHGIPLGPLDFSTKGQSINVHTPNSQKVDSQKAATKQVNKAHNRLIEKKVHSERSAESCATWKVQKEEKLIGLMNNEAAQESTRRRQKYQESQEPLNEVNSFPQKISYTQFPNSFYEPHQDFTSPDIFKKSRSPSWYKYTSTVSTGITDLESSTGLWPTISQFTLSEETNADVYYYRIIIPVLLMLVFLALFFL
T9 sequence (P42336 whole entry E542K): as the sequence (P42336 whole entry M1043I) above, with E542K, I1043M counted along it
T15 sequence (Q8IYT8 whole entry): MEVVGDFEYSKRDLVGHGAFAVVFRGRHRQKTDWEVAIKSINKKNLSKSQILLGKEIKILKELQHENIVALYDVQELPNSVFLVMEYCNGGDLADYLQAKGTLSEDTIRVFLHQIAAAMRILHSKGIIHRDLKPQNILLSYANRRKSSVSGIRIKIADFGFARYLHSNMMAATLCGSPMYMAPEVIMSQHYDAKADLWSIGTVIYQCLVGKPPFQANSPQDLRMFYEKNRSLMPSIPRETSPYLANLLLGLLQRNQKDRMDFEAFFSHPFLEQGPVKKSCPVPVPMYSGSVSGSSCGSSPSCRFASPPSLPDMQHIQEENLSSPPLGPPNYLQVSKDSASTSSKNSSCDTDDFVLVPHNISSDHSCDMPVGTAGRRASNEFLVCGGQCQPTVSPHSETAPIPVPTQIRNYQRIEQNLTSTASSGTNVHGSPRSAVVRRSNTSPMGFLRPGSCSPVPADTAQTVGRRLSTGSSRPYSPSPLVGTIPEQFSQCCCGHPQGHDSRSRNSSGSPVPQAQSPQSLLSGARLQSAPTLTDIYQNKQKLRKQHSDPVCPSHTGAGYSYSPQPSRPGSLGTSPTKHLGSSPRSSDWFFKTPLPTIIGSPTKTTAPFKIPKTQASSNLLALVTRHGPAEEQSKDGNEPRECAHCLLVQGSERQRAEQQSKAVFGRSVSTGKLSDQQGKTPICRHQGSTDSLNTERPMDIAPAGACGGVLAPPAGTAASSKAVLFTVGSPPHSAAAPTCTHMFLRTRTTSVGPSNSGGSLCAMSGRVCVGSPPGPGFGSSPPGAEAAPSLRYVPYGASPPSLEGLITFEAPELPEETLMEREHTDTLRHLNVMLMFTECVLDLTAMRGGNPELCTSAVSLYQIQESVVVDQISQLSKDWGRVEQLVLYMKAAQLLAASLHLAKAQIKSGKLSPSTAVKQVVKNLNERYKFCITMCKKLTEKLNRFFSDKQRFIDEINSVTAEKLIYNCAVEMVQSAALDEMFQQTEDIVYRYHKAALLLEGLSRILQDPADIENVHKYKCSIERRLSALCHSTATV

For `CC(C)(C)c1cc(NC(=O)Nc2ccc(Oc3ncnc4[nH]ncc34)c(F)c2)no1` [SKLB-677, 1-(4-(1H-pyrazolo[3,4-d]pyrimidin-4-yloxy)-3-fluorophenyl)-3-(5-tert-butylisoxazol-3-yl)urea], the remaining binding at 10 µM at ACVR1 worked out at 95%; on ANKK1, 57%; on DMPK, 100%; on IKK-epsilon, 55%; at KIT, 0%; on MAP3K2, 100%. Moreover, the remaining binding at 10 µM at MEK5 came out at 13%; on NIM1, 33%; on PIK3CA(E542K), 100%; at PIK3CA(M1043I), 100%; on PKNB(M.tuberculosis), 100%; in [1] it was 29%. The remaining binding at 10 µM at STK35 came to 0.95%; in experiment [2], 100%; at ULK2, 97%; at VRK2, 100%. For the same compound, the Kd at PAK4 was > 10 µM. For the same compound, the “expression of β-catenin target genes” value in experiment [3] was “considerably decrease”.
